B1: FLAG-RIN3 (natural protein, UniProt Q8TB24 1-985, looked up)
chain: MIRHAGAPARGDPTGPVPVVGKGEEEEEEDGMRLCLPANPKNCLPHRRGISILEKLIKTCPVWLQLSLGQAEVARILHRVVAGMFLVRRDSSSKQLVLCVHFPSLNESSAEVLEYTIKEEKSILYLEGSALVFEDIFRLIAFYCVSRDLLPFTLRLPQAILEASSFTDLETIANLGLGFWDSSLNPPQERGKPAEPPRDRAPGFPLVSSLRPTAHDANCACEIELSVGNDRLWFVNPIFIEDCSSALPTDQPPLGNCPARPLPPTSDATSPTSRWAPRRPPPPPPVLPLQPCSPAQPPVLPALAPAPACPLPTSPPVPAPHVTPHAPGPPDHPNQPPMMTCERLPCPTAGLGPLREEAMKPGAASSPLQQVPAPPLPAKKNLPTAPPRRRVSERVSLEDQSPGMAAEGDQLSLPPQGTSDGPEDTPRESTEQGQDTEVKASDPHSMPELPRTAKQPPVPPPRKKRISRQLASTLPAPLENAELCTQAMALETPTPGPPREGQSPASQAGTQHPPAQATAHSQSSPEFKGSLASLSDSLGVSVMATDQDSYSTSSTEEELEQFSSPSVKKKPSMILGKARHRLSFASFSSMFHAFLSNNRKLYKKVVELAQDKGSYFGSLVQDYKVYSLEMMARQTSSTEMLQEIRTMMTQLKSYLLQSTELKALVDPALHSEEELEAIVESALYKCVLKPLKEAINSCLHQIHSKDGSLQQLKENQLVILATTTTDLGVTTSVPEVPMMEKILQKFTSMHKAYSPEKKISILLKTCKLIYDSMALGNPGKPYGADDFLPVLMYVLARSNLTEMLLNVEYMMELMDPALQLGEGSYYLTTTYGALEHIKSYDKITVTRQLSVEVQDSIHRWERRRTLNKARASRSSVQDFICVSYLEPEQQARTLASRADTQAQALCAQCAEKFAVERPQAHRLFVLVDGRCFQLADDALPHCIKGYLLRSEPKRDFHFVYRPLDGGGGGGGGSPPCLVVREPNFL
notes: this molecule is used for it; source: HEK293T, transfected, in lysate

Assays:
Rab3a = target: T1, Rab3a (Homo sapiens, UniProt P20336); experiment: […] metabolic labelling, anti-myc immunoprecipitation, TLC of bound nucleotides; assay type: cell-based; conditions: HEK293T cells, mock or RINL co-expression, labelled compound
T1 construct: myc-tagged, expressed in HEK293T, immunoprecipitated
T1 sequence (P20336 1-220): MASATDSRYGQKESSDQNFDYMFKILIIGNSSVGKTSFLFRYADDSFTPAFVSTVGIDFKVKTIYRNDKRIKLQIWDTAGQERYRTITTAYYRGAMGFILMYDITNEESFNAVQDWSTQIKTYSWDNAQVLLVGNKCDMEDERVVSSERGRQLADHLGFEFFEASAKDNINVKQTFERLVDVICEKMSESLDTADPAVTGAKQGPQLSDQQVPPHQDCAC

Rab5b = target: T2, Rab5b (Homo sapiens, UniProt P61020); experiment: as above; assay type: cell-based; conditions: HEK293T cells, 4 h 32Pi; mock or GEF co-expression; labelled compound
T2 construct: GST fusion from E. coli (in vitro); myc-tagged in HEK293T (cell assay)
T2 sequence (P61020 1-215): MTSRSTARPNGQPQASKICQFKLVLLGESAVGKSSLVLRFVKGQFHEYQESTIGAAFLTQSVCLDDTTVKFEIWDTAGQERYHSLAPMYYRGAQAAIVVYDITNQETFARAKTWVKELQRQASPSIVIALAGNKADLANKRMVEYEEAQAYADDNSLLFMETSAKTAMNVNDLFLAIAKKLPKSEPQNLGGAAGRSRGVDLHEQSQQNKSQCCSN

Rab31 [1] = target: T3, Rab31 (Homo sapiens, UniProt Q13636); experiment: as above; assay type: cell-based; set-up: myc-tagged in HEK293T (cell assay); conditions: HEK293T cells, 4 h 32Pi; mock or GEF co-expression; labelled compound
T3 sequence (Q13636 1-195): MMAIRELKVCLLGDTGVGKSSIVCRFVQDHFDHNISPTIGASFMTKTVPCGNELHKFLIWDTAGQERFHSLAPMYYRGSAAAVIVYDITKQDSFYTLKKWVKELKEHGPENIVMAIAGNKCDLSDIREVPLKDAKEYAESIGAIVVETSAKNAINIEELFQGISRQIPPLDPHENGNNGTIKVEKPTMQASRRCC

Rab21 [2] = target: T4, Rab21 (Homo sapiens, UniProt Q9UL25); experiment: as above; assay type: cell-based; set-up: myc-tagged in HEK293T (cell assay); conditions: HEK293T cells, 4 h 32Pi; mock or GEF co-expression; labelled compound
T4 sequence (Q9UL25 1-225 limits assumed): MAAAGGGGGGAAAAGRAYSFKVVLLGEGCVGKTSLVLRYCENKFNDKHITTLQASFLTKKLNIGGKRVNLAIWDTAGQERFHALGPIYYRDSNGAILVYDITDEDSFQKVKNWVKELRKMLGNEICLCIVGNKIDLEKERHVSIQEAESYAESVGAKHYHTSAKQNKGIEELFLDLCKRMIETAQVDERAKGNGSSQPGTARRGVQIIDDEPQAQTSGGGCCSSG

Rab22 [3] = target: T5, Rab22 (Homo sapiens, UniProt Q9UL26); experiment: as above; assay type: cell-based; set-up: gene RAB22A; myc-tagged in HEK293T (cell assay); conditions: HEK293T cells, 4 h 32Pi; mock or GEF co-expression; labelled compound
T5 sequence (Q9UL26 1-194): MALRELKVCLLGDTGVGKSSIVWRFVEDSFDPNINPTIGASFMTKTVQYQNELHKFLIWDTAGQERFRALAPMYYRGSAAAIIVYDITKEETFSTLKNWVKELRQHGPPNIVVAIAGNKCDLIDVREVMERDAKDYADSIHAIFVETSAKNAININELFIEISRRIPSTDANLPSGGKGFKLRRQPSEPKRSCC

Rab21 [4] = target: T4, Rab21; experiment: […]GTPgammaS filter binding time course; set-up: GST fusion from E. coli (in vitro); myc-tagged in HEK293T (cell assay); conditions: 1 µM [35S]GTPgammaS, 30 °C; with or without FLAG-RINL or Rabex-5; labelled compound
Rab31 [5] = target: T3, Rab31; experiment: […]GTPgammaS filter binding time course; set-up: GST fusion from E. coli (in vitro); myc-tagged in HEK293T (cell assay); conditions: 1 µM [35S]GTPgammaS, 30 °C; with or without FLAG-RINL or Rabex-5; labelled compound
Rab22 [6] = target: T5, Rab22; experiment: […]GTPgammaS filter binding time course; set-up: gene RAB22A; GST fusion from E. coli (in vitro); myc-tagged in HEK293T (cell assay); conditions: 1 µM [35S]GTPgammaS, 30 °C; with or without FLAG-RINL or Rabex-5; labelled compound
Rab7a = target: T6, Rab7a (Homo sapiens, UniProt P51149); experiment: […] metabolic labelling, anti-myc immunoprecipitation, TLC of bound nucleotides; assay type: cell-based; conditions: HEK293T cells, mock or RINL co-expression, labelled compound
T6 construct: myc-tagged, expressed in HEK293T, immunoprecipitated
T6 sequence (P51149 2-207): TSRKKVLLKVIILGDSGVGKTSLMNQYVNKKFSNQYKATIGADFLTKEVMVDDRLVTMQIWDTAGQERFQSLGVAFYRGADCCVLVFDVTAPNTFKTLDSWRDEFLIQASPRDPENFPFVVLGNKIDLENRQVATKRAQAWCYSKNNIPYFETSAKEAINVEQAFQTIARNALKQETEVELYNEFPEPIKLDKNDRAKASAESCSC

Rab11a = target: T7, Rab11a (Homo sapiens, UniProt P62491); experiment: as above; assay type: cell-based; conditions: HEK293T cells, mock or RINL co-expression, labelled compound
T7 construct: myc-tagged, expressed in HEK293T, immunoprecipitated
T7 sequence (P62491 2-213): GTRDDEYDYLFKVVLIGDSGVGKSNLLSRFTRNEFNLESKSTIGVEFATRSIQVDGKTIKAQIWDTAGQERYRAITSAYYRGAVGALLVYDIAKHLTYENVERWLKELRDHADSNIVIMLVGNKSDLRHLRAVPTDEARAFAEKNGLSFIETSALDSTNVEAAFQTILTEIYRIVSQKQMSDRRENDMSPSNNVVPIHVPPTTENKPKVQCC

[7] = target: the molecule itself; experiment: not stated; data not shown; tetramers composed of anti-parallel linkages of two parallel dimers

Row | Molecule | 32Pi metabolic labelling, anti-myc immunoprecipitation, TLC of bound nucleotides (Rab3a) | 32Pi metabolic labelling, anti-myc immunoprecipitation, TLC of bound nucleotides (Rab5b) | 32Pi metabolic labelling, anti-myc immunoprecipitation, TLC of bound nucleotides (Rab31 [1]) | 32Pi metabolic labelling, anti-myc immunoprecipitation, TLC of bound nucleotides (Rab21 [2]) | 32Pi metabolic labelling, anti-myc immunoprecipitation, TLC of bound nucleotides (Rab22 [3]) | [35S]GTPgammaS filter binding time course (Rab21 [4]) | [35S]GTPgammaS filter binding time course (Rab31 [5]) | [35S]GTPgammaS filter binding time course (Rab22 [6]) | 32Pi metabolic labelling, anti-myc immunoprecipitation, TLC of bound nucleotides (Rab7a) | 32Pi metabolic labelling, anti-myc immunoprecipitation, TLC of bound nucleotides (Rab11a) | stoichiometry N [7]
1 | Nc1nc2c(ncn2[C@@H]2O[C@H](COP(=O)(O)OP(=O)(O)OP(=O)(O)O)[C@@H](O)[C@H]2O)c(=O)[nH]1 [GTP] | The percentages (%) of each GTP-bound Rab member in the metabolically radiolabeled cells are shown | Rab5b was present in a GTP-bound form in mock-transfected cells | RINL significantly increased GTP-Rab21, GTP-Rab22, and GTP-Rab31 formation | RINL significantly increased GTP-Rab21, GTP-Rab22, and GTP-Rab31 formation | RINL significantly increased GTP-Rab21, GTP-Rab22, and GTP-Rab31 formation |  |  |  |  |  | 
2 | Nc1nc2c(ncn2[C@@H]2O[C@H](COP(=O)(O)OP(=O)(O)OP(O)(O)=S)[C@@H](O)[C@H]2O)c(=O)[nH]1 [GTPgammaS] |  |  |  |  |  | Rabex-5 strongly, as opposed to RINL, accelerated GTPgammaS binding to Rab21 | RINL accelerated GTPgammaS binding to Rab22 and Rab31 | RINL accelerated GTPgammaS binding to Rab22 and Rab31 |  |  | 
3 | Nc1nc2c(ncn2[C@@H]2O[C@H](COP(=O)(O)OP(=O)(O)O)[C@@H](O)[C@H]2O)c(=O)[nH]1 [GDP] | The radioactivity of GTP and GDP was quantified | The radioactivity of GTP and GDP was quantified | The radioactivity of GTP and GDP was quantified | The radioactivity of GTP and GDP was quantified | The radioactivity of GTP and GDP was quantified |  |  |  | The radioactivity of GTP and GDP was quantified | The radioactivity of GTP and GDP was quantified | 
4 | B1 |  |  |  |  |  |  |  |  |  |  | 4

From publication PMC3264577, “RINL, Guanine Nucleotide Exchange Factor Rab5-Subfamily, Is Involved in the EphA8-Degradation Pathway with Odin” (PLoS ONE, 2012)
